Where two headings read alike, the source gives them in different places.
What was measured:
meta-AAC0038 [1] = details: ternary complex with CoA; 10 mM apramycin, 20% PEG 3350, 50 mM ADA pH 7; catalytically inactive mutant; active site cleft
meta-AAC0038 [2] = details: binary complex; catalytically inactive mutant
AAC(3)-IVa [3] = experiment: crystal structure
AAC(3)-IVa [4] = target: AAC(3)-IVa

Chain of meta-AAC0038 (A0A059X981 entry or part of it H168A): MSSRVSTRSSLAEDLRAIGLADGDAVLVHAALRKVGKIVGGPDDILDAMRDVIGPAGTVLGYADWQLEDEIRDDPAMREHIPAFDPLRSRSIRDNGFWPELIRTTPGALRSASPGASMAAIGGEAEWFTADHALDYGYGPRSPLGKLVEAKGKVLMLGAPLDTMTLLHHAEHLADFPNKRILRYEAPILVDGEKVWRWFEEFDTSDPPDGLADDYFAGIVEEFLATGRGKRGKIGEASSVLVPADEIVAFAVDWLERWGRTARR

CN[C@@H]1[C@@H](O[C@H]2O[C@H](CO)[C@@H](N)[C@H](O)[C@H]2O)O[C@H]2C[C@@H](N)[C@@H](O[C@H]3[C@H](O)[C@@H](O)[C@H](N)C[C@@H]3N)O[C@@H]2[C@@H]1O [APR, apramycin]
X-ray crystal structure, co-crystallization (meta-AAC0038 [1]): crystal structures of the ternary meta-AAC0038^H168A•apramycin•CoA

CC(=O)SCCNC(=O)CCNC(=O)[C@H](O)C(C)(C)COP(=O)(O)OP(=O)(O)OC[C@H]1O[C@@H](n2cnc3c(N)ncnc32)[C@H](O)[C@@H]1OP(=O)(O)O [AcCoA, acetyl-CoA]
X-ray crystal structure (meta-AAC0038 [2]): the binary meta-AAC0038^H168A•acetyl-CoA complexes

AAC(3)-IVa (enzyme)
stoichiometry N (AAC(3)-IVa [3]): 2 | stoichiometry N (AAC(3)-IVa [4]): 2

— PMC8956665, “Structural and molecular rationale for the diversification of resistance mediated by the Antibiotic_NAT family” (Communications Biology, 2022)
